One series concerns the target T1, human TLR7 (Homo sapiens, UniProt Q9NYK1).
T1 sequence (Q9NYK1 27-1049): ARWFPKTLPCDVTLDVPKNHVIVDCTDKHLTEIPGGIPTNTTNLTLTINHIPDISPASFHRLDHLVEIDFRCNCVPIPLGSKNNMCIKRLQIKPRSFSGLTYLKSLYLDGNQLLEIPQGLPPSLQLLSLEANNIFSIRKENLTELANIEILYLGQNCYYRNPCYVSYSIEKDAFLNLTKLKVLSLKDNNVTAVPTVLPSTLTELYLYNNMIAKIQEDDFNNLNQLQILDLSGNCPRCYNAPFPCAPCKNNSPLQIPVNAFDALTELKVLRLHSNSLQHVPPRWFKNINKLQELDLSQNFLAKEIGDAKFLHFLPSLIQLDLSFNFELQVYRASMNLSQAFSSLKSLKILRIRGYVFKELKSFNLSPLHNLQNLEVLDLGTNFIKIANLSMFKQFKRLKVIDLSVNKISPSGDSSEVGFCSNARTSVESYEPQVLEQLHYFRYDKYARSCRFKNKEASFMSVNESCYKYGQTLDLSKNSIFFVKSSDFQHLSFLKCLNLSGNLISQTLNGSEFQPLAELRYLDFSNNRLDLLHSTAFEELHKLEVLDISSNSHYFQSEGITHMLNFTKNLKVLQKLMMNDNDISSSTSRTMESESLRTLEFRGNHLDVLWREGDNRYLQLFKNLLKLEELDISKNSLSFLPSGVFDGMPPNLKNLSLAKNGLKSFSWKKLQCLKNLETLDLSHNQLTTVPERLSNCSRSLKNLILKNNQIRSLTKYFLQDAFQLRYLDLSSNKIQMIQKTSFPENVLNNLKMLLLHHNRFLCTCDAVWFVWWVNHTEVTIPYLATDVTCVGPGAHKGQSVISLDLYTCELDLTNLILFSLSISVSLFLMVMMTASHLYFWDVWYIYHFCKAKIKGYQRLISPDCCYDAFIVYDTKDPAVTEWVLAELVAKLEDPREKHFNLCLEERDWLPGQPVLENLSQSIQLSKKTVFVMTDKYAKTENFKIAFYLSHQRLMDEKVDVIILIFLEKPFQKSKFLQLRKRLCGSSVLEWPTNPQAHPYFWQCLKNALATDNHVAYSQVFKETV
Kind of series: human TLR7-specific reporter gene assay. Format: cell-based. Background: Reporter assays use an easily measured gene product as a stand-in for the process of interest.

The subject of another series is human PBMCs. The experiment in a line: Induction of IFN-α, IFN-γ, IL-12 and IL-18 in human PBMCs, ELISA. The series is classed as cell-based. For orientation: ELISA stands for enzyme-linked immunosorbent assay.
A further series in a line: aqueous solubility. Format: physicochemical.

The values below come from paper PMC3098923 (Bioorganic & medicinal chemistry letters, 2011).

`CCCCc1nc2c(N)nc3ccccc3c2n1Cc1ccc(CNC(=O)CCN2C(=O)CC(SC[C@@H](NC(=O)CC[C@@H](N)C(=O)O)C(=O)NCC(=O)O)C2=O)cc1` (stereo partly shown) [6a]: the “TLR7-agonistic activity (in words)” value on human TLR7 is “completely inactive”. Turning to `CCCCc1nc2c(N)nc3ccccc3c2n1Cc1ccc(CN)cc1` [compound 1], the “Th1-biased cytokine induction (IFN-α, IFN-γ, IL-12, IL-18)” value in the series with human PBMCs is “prominent Th1 bias”. Also, the aqueous solubility result in the series “aqueous solubility” is “excellent”.

As for `CCCCc1nc2c(N)nc3ccccc3c2n1Cc1ccc(CNC(=S)NCC(=O)NCC(=O)NCC(=O)OC)cc1` [compound 3], on human TLR7, the “TLR7-agonistic activity (in words)” value is “active”.
